Values joined by “and” are separate entries in the source; they are usually repeats but may differ in a detail not shown here. Identical values can stand only once. “Also recorded” adds a separate entry of the source.

The source of these data is patent publication US20080160101A1, “Composition For Use Against One Or More Pathogens” (Bionext, priority 2004, published 2008).

In one test the test system is Penicillium expansum. Description: Protection of wounded apples against postharvest rot caused by Penicillium expansum (lesion diameter, percentage of protection). More on the design: Average infection: unit not given here. The class given is in vivo. As to the method:
Apples (Malus domestica Borkh cv. Golden) were harvested from commercial orchards maintained with standard cultural practices in Belgium and placed in regular long term storage. Commercial class I fruits were used. They were bought from wholesale dealers and stored in a cold room at 4±1° C. for maximum 15 days before use.
Penicillium expansum (blue mould) strains were initially isolated from apples in Gembloux Belgium. Conidia from pathogen were put in suspension in a glycerol solution (25%) and stored at −70° C. Starting from this stored material, the fungal strain was transferred to PDA medium at 25° C. Conidial suspensions were prepared in an aqueous sterile solution of Tween 20 (0.05%), and were adjusted to the required concentration (10^6 spores/ml) using a Bürker cell.
The antagonistic yeast strain was Candida oleophila Montrocher deposited under number 40564 at the BBCM™/MUCL Culture Collection of the Mycotheque de l'Universite Catholique de Louvain, hereinafter designated as “strain 0”.
This antagonistic yeast strain was isolated from apple surface and stored at −70° C. in a glycerol solution (25%). Before use, the yeast strain was subcultured three times successively at 24 hours intervals on PDA (Potato Dextrose Agar). At the third generation, yeast cells were removed from the culture medium and suspended in isotonic water (NaCl 0.85%). Suspension concentrations were adjusted to the required values after the establishment of a regression line in relation with the micro-organisms suspension absorbance (at 595 nm) and the number of colony forming units (cfu) of the same suspension spread onto PDA.
Fruits were disinfected by dipping for 2 minutes in sodium hypochlorite (10% of the commercial product). They were rinsed in sterile water and dried out under laminar flux before being wounded by removing 4 mm diameter and 2-3 mm deep blocks of tissue from three sites 4-5 cm apart along one side of the surface of the fruits.
The wounds were treated by application of 40 μl of compositions of the state of the art or compositions according to the invention.
After a 24 h at 20° C. incubation period in plastic boxes, the wounds were inoculated with 40 μl of the respective conidial suspensions of the pathogens. The fruits were incubated at 25° C.
[…] At least five fruits (15 wounds) were used per treatment. Most of the time, 15 fruits and 45 wounds were used per treatment.
The percentage of protection provided by the different treatments was calculated from the diameter of lesion caused by the fruit rot agent after the incubation time using the following formula: […]
wherein Y is the percentage of protection; DT is the mean diameter of lesions for the untreated control and DX is the mean diameter of lesions for the treated fruits.
The effect of the compositions according to the invention against postharvest apple rots caused by P. expansum was evaluated under controlled conditions.
(§1) The apples were wounded as described in Example 2 and treated by application of compositions comprising a salt according to the invention and 10^5 cfu C. oleophila, or compositions of the state of the art.
After incubation, the wounds were inoculated with Penicillum expansum. The fruits are further incubated. […] The percentage of protection provided by the different treatments was calculated as described in Example 2.
as §1

A further test deals with Botrytis cinerea. The experiment in a line: Protection of wounded apples against Botrytis cinerea (lesion diameter, percentage of protection). In kind it is in vivo. The settings on record: for Average infection / Efficiency %: Table 10, salt + strain O 10^5, CaCl2 20 g/l, CG 2 g/l, CGt 1.805 g/l, TC 0.848 g/l, PC 0.964 g/l, 5 days; for results of combination of salt with C. oleophila, in words (conclusions): salt combined with C. oleophila, apples, salts tested only in Example 5.

[1] abbreviates: Table 6a, salt + strain O 10^5, CG 2 g/l, TC 0.87 g/l, CCa 0.47 g/l, CL 1.34 g/l, CLG 1.3 g/l, CA 1.96 g/l, 7 days.
[2] abbreviates: Table 6b, salt + strain O 10^5, CG 2 g/l, TC 0.87 g/l, CCa 0.47 g/l, CL 1.34 g/l, CLG 1.3 g/l, CA 1.96 g/l, 7 days.
[3] abbreviates: Table 8, salt + strain O 10^5, CaCl2 20 g/l, CG 2 g/l, CCa 0.47 g/l, CBC 0.762 g/l, CPT 0.486 g/l, CPM 1.485 g/l, 7 days.
[4] abbreviates: Table 9, salt + strain O 10^5, CaCl2 20 g/l, CG 2 g/l, CCa 0.47 g/l, CBC 0.762 g/l, CPT 0.486 g/l, CPM 1.485 g/l, 11 days.
The mark [5] stands for this setting: salt + strain O 10^5 cfu/ml compared with strain O alone.
Setting [6] is: salt combined with C. oleophila, apples.
[7] abbreviates: Table 7, salt + strain O 10^5, CaCl2 20 g/l, CG 2 g/l, TC 0.87 g/l, CCA 0.47 g/l.
Where [8] appears, read: Table 3, first series, CG 2 g/l + strain O 10^5 cfu/ml, 7 days.
[9] abbreviates: Table 4, second series, CG 2 g + strain O 10^5 cfu/ml, 7 days.
The mark [10] stands for this setting: Table 5, third series, CG 2 g + strain O 10^5 cfu/ml, 7 days.

For the compound `O=C([O-])[O-].[Ca+2]` [CCa, calcium carbonate], in the test on Penicillium expansum (in vivo), the Efficiency % is 77.9% and 92.8% and 97.2% and 88.6% and 85.1%; the “protection against P. expansum, in words” value is “good protection”; the “results of combination of salt with C. oleophila, in words (conclusions)” value (“results of combination of salt” below) was “Very good results”.

As to `N[C@@H](CCC(=O)[O-])C(=O)[O-].[Ca+2]` [CGt, calcium glutamate], in the test with Botrytis cinerea, the Average infection amounted to 0.8 and the Efficiency % is 51.3%.

`CC(O)C(=O)[O-].CC(O)C(=O)[O-].[Ca+2]` (stereo not drawn) [CL, calcium lactate]: the Average infection in the test on Penicillium expansum (setting [1]) is reported as 7.7; in the test on Penicillium expansum (setting [2]) it was 6.06. Moreover, the Efficiency % with Penicillium expansum (setting [1]) is listed as 58.1%; with Penicillium expansum (setting [2]) it was 82.5%. The “results of combination of salt” value with Penicillium expansum (in vivo) is reported as “Very good results”.

Regarding `O=[N+]([O-])[O-].O=[N+]([O-])[O-].[Ca+2]` [CN, Calcium Nitrate, reference compound], in the test with Penicillium expansum (in vivo), the Average infection is 7.6 and 10.9; the “protection against P. expansum, in words” value was “less efficient”.

As for `O=P([O-])(O)O.O=P([O-])(O)O.[Ca+2]` [CPM, calcium phosphate monobasic], in the test on Penicillium expansum (setting [3]), the Average infection stood at 0.1 and the Efficiency % came out at 94.4%. Also, in the test with Penicillium expansum (setting [4]), the Average infection worked out at 0.7 and the Efficiency % worked out at 86.6%. In the test with Penicillium expansum (setting [5]), the “protection against P. expansum, in words” value is on record as “good protection”. In the test with Penicillium expansum (setting [6]), the “results of combination of salt” value is reported as “Very good results”.

In the case of `O=P([O-])([O-])[O-].O=P([O-])([O-])[O-].[Ca+2].[Ca+2].[Ca+2]` [CPT, calcium phosphate tribasic], the Average infection was 0.4 in the test with Penicillium expansum (setting [3]) and 0.9 with Penicillium expansum (setting [4]). Also, the results for the Efficiency % in the test with Penicillium expansum (setting [3]) and in the test on Penicillium expansum (setting [4]) were 84.1% and 82.1%, respectively. Moreover, in the test on Penicillium expansum (setting [5]), the “protection against P. expansum, in words” value is recorded as “good protection”. Moreover, the “results of combination of salt” value with Penicillium expansum (setting [6]) is “Very good results”.

`[Ca+2].[Cl-].[Cl-]` [CaCl2, reference compound]: the Average infection in the test with Penicillium expansum (setting [7]) was 0.7; with Penicillium expansum (setting [3]) it was 0.3; in the test with Penicillium expansum (setting [4]) it was 0.6; with Botrytis cinerea it was 0.3. Besides, the Efficiency % was found to be 97.4% in the test on Penicillium expansum (setting [7]), 87.6% in the test on Penicillium expansum (setting [3]), 87.7% in the test with Penicillium expansum (setting [4]) and 82.4% in the test on Botrytis cinerea.

For `O=C([O-])CC(O)(CC(=O)[O-])C(=O)[O-].[K+].[K+].[K+]` [PC, potassium citrate], in the test with Botrytis cinerea, the Average infection stood at 0.5; the Efficiency % came out at 66.4%; the “results of combination of salt” value is “Very good results”.

In the case of `O=C([O-])CC(O)(CC(=O)[O-])C(=O)[O-].O=C([O-])CC(O)(CC(=O)[O-])C(=O)[O-].[Ca+2].[Ca+2].[Ca+2]` [TC, tricalcium citrate], the Average infection was 2.8 with Penicillium expansum (setting [1]), 6.67 with Penicillium expansum (setting [2]), 1.0 in the test on Penicillium expansum (setting [7]) and 0.3 in the test with Botrytis cinerea. The Efficiency % is 84.8% with Penicillium expansum (setting [1]), 83.3% in the test with Penicillium expansum (setting [2]), 96.4% in the test with Penicillium expansum (setting [7]) and 78.9% in the test on Botrytis cinerea. For the same compound, the “results of combination of salt” value in the test with Penicillium expansum (in vivo) was “Very good results”.

As to `N[C@@H](CCC(=O)[O-])C(=O)[O-].[K+].[K+]` [potassium glutamate], the “results of combination of salt” value in the test on Botrytis cinerea is “Very good results”.

Regarding calcium ascorbate, in the test with Penicillium expansum (setting [1]), the Average infection worked out at 5.4 and the Efficiency % came to 70.9%. In addition, in the test on Penicillium expansum (setting [2]), the Average infection was 5.31 and the Efficiency % stood at 86.7%. Moreover, the “results of combination of salt” value with Penicillium expansum (in vivo) was “Very good results”.

For the compound calcium bicarbonate [CBC], in the test with Penicillium expansum (setting [3]), the Average infection turned out to be 0.5 and the Efficiency % came to 76.5%. In addition, in the test with Penicillium expansum (setting [4]), the Average infection was 2.1 and the Efficiency % is 59.0%. In addition, in the test with Penicillium expansum (setting [5]), the “protection against P. expansum, in words” value is “good protection”. Besides, in the test on Penicillium expansum (setting [6]), the “results of combination of salt” value is “Very good results”.

For the compound calcium gluconate [CG], the Average infection was 1.5 in the test with Penicillium expansum (setting [8]); 1.2 in the test on Penicillium expansum (setting [9]); 2.7 with Penicillium expansum (setting [10]); 4.8 in the test on Penicillium expansum (setting [1]); 6.50 in the test on Penicillium expansum (setting [2]); 1.7 in the test with Penicillium expansum (setting [7]). The Average infection with Penicillium expansum (setting [3]) is 0.5; in the test on Penicillium expansum (setting [4]), 1.5. For the same compound, the figures for the “Protection Efficiency %” value with Penicillium expansum (setting [8]), with Penicillium expansum (setting [9]) and in the test on Penicillium expansum (setting [10]) were 87.3%, 90.7% and 79.3%, respectively. Further, the Efficiency % with Penicillium expansum (setting [1]) came to 73.8%; in the test with Penicillium expansum (setting [2]), 74.2%; in the test with Penicillium expansum (setting [7]), 93.5%; with Penicillium expansum (setting [3]), 77.4%; in the test with Penicillium expansum (setting [4]), 70.5%; in the test on Botrytis cinerea it was 60.7%. Besides, the “protection against P. expansum, in words” value in the test with Penicillium expansum (setting [5]) is “improved the protection; also recorded: better and enhanced efficacy”; in the test with Penicillium expansum (salt + strain O 10^5 cfu/ml compared with strain O alone, listed as calcium gluconate), “good protection”. Also, the “results of combination of salt” value with Penicillium expansum (setting [6]) is “Very good results”.

For calcium lactogluconate [CLG], the results for the Average infection in the test with Penicillium expansum (setting [1]) and with Penicillium expansum (setting [2]) were 5.6 and 6.21, respectively. The figures for the Efficiency % in the test on Penicillium expansum (setting [1]) and with Penicillium expansum (setting [2]) were 69.4% and 86.3%, respectively. In the test on Penicillium expansum (setting [6]), the “results of combination of salt” value was “Very good results”.
